Measurements taken from ChEMBL document CHEMBL5107956, “Natural products from mangrove sediments-derived microbes: Structural diversity, bioactivities, biosynthesis, and total synthesis” (Eur J Med Chem, 2022).
Values after ≈ are worked out from the molar mass of the structure shown.

Columns and labels:
[1] = system: Influenza A virus; experiment: Antiviral activity against Influenza A virus H1N1; format: functional, organism-based
[2] = system: HeLa; experiment: Cytotoxicity against human HeLa cells assessed as cell growth inhibition; format: functional, cell-based
[3] = system: Bacillus subtilis; experiment: Antibacterial activity against Bacillus subtilis S028 assessed as bacterial cell growth inhibition by agar dilution method; format: functional
[4] = system: Escherichia coli; experiment: Antibacterial activity against Escherichia coli S002 assessed as bacterial cell growth inhibition by agar dilution method; format: functional
[5] = system: Staphylococcus aureus; experiment: Antibacterial activity against Staphylococcus aureus S014 assessed as bacterial cell growth inhibition by agar dilution method; format: functional
[6] = system: Candida albicans; experiment: Antifungal activity against Candida albicans ATCC 10231 assessed as fungal growth inhibition by agar dilution method; format: functional
[7] = system: MCF7; experiment: Cytotoxicity against human MCF7 cells assessed as cell growth inhibition; format: functional, cell-based

SMILES | IC50 [2] | MIC [3] | MIC [4] | MIC [5] | MIC [6] | IC50 [7] | also measured
O=C1NC2c3nc4ccccc4c(=O)n3[C@H]1C[C@@]21c2ccccc2N2C(=O)[C@@H]3CCCN3[C@H]21 |  |  |  |  |  |  | IC50 [1]: 82 µM
CS[C@H]1NC(=O)[C@@](Cc2ccc(CCC=C(C)C)cc2)(SC)N(C)C1=O | 4200 nM |  |  |  |  |  | 
C/C1=C\C=C\[C@H](C)[C@@H](O)C[C@H](O)[C@@H](C)[C@H](O)CC[C@H](C)[C@@H](O)C[C@@]2(O)O[C@@H](C[C@@H](OC(=O)CCCCC(C)C)C[C@H](O)C[C@@H](O)C[C@H](O)/C(C)=C/C=C/[C@@H](C)[C@H]([C@@H](C)CCC/C=C/CCCNC(=N)N)OC1=O)C[C@@H](O)[C@@H]2O |  | 0.2 µg/mL (≈ 0.18 µM) | 3.13 µg/mL (≈ 2.82 µM) | 0.39 µg/mL (≈ 0.352 µM) | 1.65 µg/mL (≈ 1.49 µM) |  | 
CC[C@@H]1[C@@H](C)O[C@@](OC)([C@@H](C)[C@H](O)[C@H](C)[C@H]2OC(=O)/C=C/C=C/[C@H](C)[C@@H]([C@@H](C)[C@@H](O)[C@H](C)[C@@]3(OC)C[C@@H](O[C@H]4C[C@H](O)[C@H](O)[C@H](C)O4)[C@H](CC)[C@@H](C)O3)OC(=O)/C(C)=C/C=C/[C@@H]2C)C[C@H]1O[C@H]1C[C@H](O)[C@H](O)[C@H](C)O1 | 190 nM |  |  |  |  | 190 nM | 
C/N=C(\NC)NCCC/C=C/CCC[C@H](C)[C@@H]1OC(=O)/C(C)=C/C=C/[C@H](C)[C@@H](O)C[C@H](O)[C@@H](C)[C@H](O)CC[C@H](C)[C@@H](O)C[C@@]2(O)O[C@@H](C[C@@H](OC(=O)C(N)C(C)C)C[C@H](O)C[C@@H](O)C[C@H](O)/C(C)=C/C=C/[C@H]1C)C[C@@H](O)[C@@H]2O (some centres undefined) |  | 0.2 µg/mL (≈ 0.18 µM) | 3.13 µg/mL (≈ 2.82 µM) | 0.39 µg/mL (≈ 0.352 µM) | 1.65 µg/mL (≈ 1.49 µM) |  | 
C/N=C(\NC)NCCC/C=C/CCC[C@H](C)[C@@H]1OC(=O)/C(C)=C/C=C/[C@H](C)[C@@H](O)C[C@H](O)[C@@H](C)[C@H](O)CC[C@H](C)[C@@H](O)C[C@@]2(O)O[C@@H](C[C@@H](O)C[C@H](OC(=O)CC(=O)O)C[C@@H](O)C[C@H](O)/C(C)=C/C=C/[C@H]1C)C[C@@H](O)[C@@H]2O |  | 0.2 µg/mL (≈ 0.182 µM) | 3.13 µg/mL (≈ 2.85 µM) | 0.39 µg/mL (≈ 0.356 µM) | 1.65 µg/mL (≈ 1.5 µM) |  | 
CC(=O)C[C@H](c1nc2ccccc2c(=O)n1[C@@H]1C[C@]2(OC1=O)c1ccccc1N1C(=O)C(C)(C)N[C@H]12)C(C)C |  |  |  |  |  |  | IC50 [1]: 82 µM
CC[C@@H]1[C@@H](C)O[C@@](O)([C@@H](C)[C@H](O)[C@H](C)[C@H]2OC(=O)/C=C/C=C/[C@H](C)[C@@H]([C@@H](C)[C@@H](O)[C@H](C)[C@@]3(O)C[C@@H](O[C@H]4C[C@H](O)[C@H](O)[C@H](C)O4)[C@H](CC)[C@@H](C)O3)OC(=O)/C(C)=C/C=C/[C@@H]2C)C[C@H]1O[C@H]1C[C@H](O)[C@H](O)[C@H](C)O1 | 190 nM |  |  |  |  | 190 nM | 
CC[C@@H]1[C@@H](C)O[C@@](O)([C@@H](C)[C@H](O)[C@H](C)[C@H]2OC(=O)/C=C/C=C/[C@H](C)[C@@H]([C@@H](C)[C@@H](O)[C@@H](C)[C@@]3(O)C[C@@H](O[C@H]4C[C@H](O)[C@H](O)[C@H](C)O4)[C@H](CC)[C@@H](C)O3)OC(=O)/C=C/C=C/[C@@H]2C)C[C@H]1OC | 190 nM |  |  |  |  | 190 nM | 
C/N=C(/NC)NCCC/C=C/CCC[C@H](C)[C@@H]1OC(=O)/C(C)=C/C=C/[C@H](C)[C@@H](O)C[C@H](O)[C@@H](C)[C@H](O)CC[C@H](C)[C@@H](O)C[C@@]2(O)O[C@@H](C[C@@H](OC(=O)CCCCCCCCC(C)C)C[C@H](O)C[C@@H](O)C[C@H](O)/C(C)=C/C=C/[C@H]1C)C[C@@H](O)[C@@H]2O |  | 0.2 µg/mL (≈ 0.168 µM) | 3.13 µg/mL (≈ 2.62 µM) | 0.39 µg/mL (≈ 0.327 µM) | 1.65 µg/mL (≈ 1.38 µM) |  | 
CC[C@@H]1[C@@H](C)O[C@@](O)([C@@H](C)[C@H](O)[C@H](C)[C@H]2OC(=O)/C=C/C=C/[C@H](C)[C@@H]([C@@H](C)[C@@H](O)[C@H](C)[C@@]3(O)C[C@@H](O[C@H]4C[C@H](O)[C@H](O)[C@H](C)O4)[C@H](C)[C@@H](C)O3)OC(=O)/C=C/C=C/[C@@H]2C)C[C@H]1O[C@H]1C[C@H](O)[C@H](O)[C@H](C)O1 | 190 nM |  |  |  |  | 190 nM | 
CC(=O)C[C@H](c1nc2ccccc2c(=O)n1[C@@H]1C[C@]2(OC1=O)c1ccccc1N1C(=O)[C@H](C)N[C@H]12)C(C)C |  |  |  |  |  |  | IC50 [1]: 82 µM
CCCC(CC)COC(=O)CC(=O)OC1CC(O)CC2CC(O)C(O)C(O)(CC(O)C(C)CCC(O)C(C)C(O)CC(O)C(C)/C=C/C=C(\C)C(=O)OC(C(C)CCC/C=C/CCCN/C(N)=N\C)C(C)/C=C/C=C(\C)C(O)CC(O)C1)O2 (centres undefined) |  | 0.2 µg/mL (≈ 0.169 µM) | 3.13 µg/mL (≈ 2.65 µM) | 0.39 µg/mL (≈ 0.33 µM) | 1.65 µg/mL (≈ 1.4 µM) |  | 
CCCC(CC)COC(=O)CC(=O)OC1CC(O)CC(O)CC(O)/C(C)=C/C=C/C(C)C(C(C)CCC/C=C/CCCN/C(=N/C)NC)OC(=O)/C(C)=C/C=C/C(C)C(O)CC(O)C(C)C(O)CCC(C)C(O)CC2(O)OC(C1)CC(O)C2O (centres undefined) |  |  |  |  | 1.65 µg/mL (≈ 1.38 µM) |  | 
CC[C@@H]1[C@@H](C)O[C@@](OC)([C@@H](C)[C@H](O)[C@H](C)[C@H]2OC(=O)/C=C/C=C/[C@H](C)[C@@H]([C@@H](C)[C@@H](O)[C@H](C)[C@@]3(O)C[C@@H](O[C@H]4C[C@H](O)[C@H](O)[C@H](C)O4)[C@H](CC)[C@@H](C)O3)OC(=O)/C=C/C=C/[C@@H]2C)C[C@H]1O[C@H]1C[C@H](O)[C@H](O)[C@H](C)O1 | 190 nM |  |  |  |  | 190 nM | 
C/N=C(/N)NCCC/C=C/CCC[C@H](C)[C@@H]1OC(=O)/C(C)=C/C=C/[C@H](C)[C@@H](O)C[C@H](O)[C@@H](C)[C@H](O)CC[C@H](C)[C@@H](O)C[C@@]2(O)O[C@@H](C[C@@H](OC(=O)CCCCCCCC(C)C)C[C@H](O)C[C@@H](O)C[C@H](O)/C(C)=C/C=C/[C@H]1C)C[C@@H](O)[C@@H]2O |  | 0.2 µg/mL (≈ 0.172 µM) | 3.13 µg/mL (≈ 2.69 µM) | 0.39 µg/mL (≈ 0.335 µM) | 1.65 µg/mL (≈ 1.42 µM) |  | 
CC[C@@H]1[C@@H](C)O[C@@](OC)([C@@H](C)[C@H](O)[C@H](C)[C@H]2OC(=O)/C=C/C=C/[C@H](C)[C@@H]([C@@H](C)[C@@H](O)[C@H](C)[C@@]3(OC)C[C@@H](O[C@H]4C[C@H](O)[C@H](O)[C@H](C)O4)[C@H](CC)[C@@H](C)O3)OC(=O)/C=C/C=C/[C@@H]2C)C[C@H]1O[C@H]1C[C@H](O)[C@H](O)[C@H](C)O1 | 190 nM |  |  |  |  | 190 nM | 
CCCC(CC)COC(=O)CC(=O)OC1CC(O)CC(O)CC(O)/C(C)=C/C=C/C(C)C(C(C)CCC/C=C/CCCN/C(N)=N/C)OC(=O)/C(C)=C/C=C/C(C)C(O)CC(O)C(C)C(O)CCC(C)C(O)CC2(O)OC(C1)CC(O)C2O (centres undefined) |  |  |  |  | 1.65 µg/mL (≈ 1.4 µM) |  | 
O=C1NC(=O)[C@H](Cc2c[nH]c3ccccc23)n2c1nc1ccccc1c2=O |  |  |  |  |  |  | IC50 [1]: 82 µM
CC[C@@H]1[C@@H](C)O[C@@](O)([C@@H](C)[C@H](O)[C@H](C)[C@H]2OC(=O)/C=C/C=C/[C@H](C)[C@@H]([C@@H](C)[C@@H](O)[C@H](C)[C@@]3(O)C[C@@H](O[C@H]4C[C@H](O)[C@H](O)[C@H](C)O4)[C@H](CC)[C@@H](C)O3)OC(=O)/C=C/C=C/[C@@H]2C)C[C@H]1O[C@H]1C[C@H](O)[C@H](O)[C@H](C)O1 | 190 nM |  |  |  |  | 190 nM | 
C/N=C(/N)NCCC/C=C/CCC[C@H](C)[C@@H]1OC(=O)/C(C)=C/C=C/[C@H](C)[C@@H](O)C[C@H](O)[C@@H](C)[C@H](O)CC[C@H](C)[C@@H](O)C[C@@]2(O)O[C@@H](C[C@@H](OC(=O)CCCCC(C)C)C[C@H](O)C[C@@H](O)C[C@H](O)/C(C)=C/C=C/[C@H]1C)C[C@@H](O)[C@@H]2O |  | 0.2 µg/mL (≈ 0.178 µM) | 3.13 µg/mL (≈ 2.79 µM) | 0.39 µg/mL (≈ 0.347 µM) | 1.65 µg/mL (≈ 1.47 µM) |  | 
